We go through three sequences from paper PMC4077824, “Conserved Prosegment Residues Stabilize a Late-Stage Folding Transition State of Pepsin Independently of Ground States” (PLoS ONE, 2014).

In series [1] the target is T1, refolded pepsin (Rp) (Sus scrofa, UniProt P00791).
T1 construct: Only the R13 and K36 side-chains of the PS form hydrogen bonds with the mature pepsin domain; purchased Sigma (St. Louis, MO, USA)
The series can be described thus: PS-catalyzed folding of Rp to Np (recovery of Np activity). Format: biochemical, porcine. Conditions: PS with Rp, without 100 mM NaCl, timescale of 0–2 hours; data not shown, and [7].

The test system of series [2] is refolded pepsin (Rp). Conditions: 1H-15N TROSY NMR, absence of 100 mM NaCl; ref [51]; cited from earlier work. The protocol: Coarse-grain simulations have been used to understand the nature of non-native interactions in small, single-domain proteins lacking stable folding intermediates, [48], [49]. […] It would be challenging, but not impossible, to use similar coarse-grain approaches to model the folding of pepsinogen (370 residues). Using simulation to gain insigh ... || PS binding to Rp was measured in buffer without added 100 mM NaCl in order to obtain more accurate measurements of K d, owing to a larger change in signal in the absence of salt. Additionally, without added 100 mM NaCl it was possible to isolate the PS-Rp binding step from the catalyzed folding step thereby improving the determination of K d. […] However, ^1H-^15N TROSY NMR experiments indicated tha ...

Series [3] can be described thus: CD spectroscopy of prosegment. Format: physicochemical. Conditions: PSwt 0.1 mg/ml, pure water or 20 mM acetic acid/NaOH pH 5.3 with and without 100 mM NaCl. The protocol:
CD data were collected using a Jasco J-810 spectropolarimeter (Jasco corp., Tokyo, Japan), over a wavelength range of 250 nm to 190 nm with a 1 nm resolution, 100 nm/min scan rate, 0.25 s response time and four-fold accumulation of scans. PSwt was diluted to 0.1 mg/ml in either pure water or 20 mM acetic acid/NaOH buffer at pH 5.3, with and without 100 mM NaCl, and loaded into a cell with a 0.1 cm path length. Background spectra were subtracted and the sample spectra converted to units of mean residue ellipticity, MRE, using MRE = MRW ×θ λ/(10×d×c), where MRW is the mean residue weight (molecular weight/number of residues), θ λ is the measured ellipticity at a particular wavelength (degrees), d is the pathlength (0.1 cm) and c is the protein concentration (g/cm^3).
Supplementary file pone.0101339.s006.tif: Figure S6 CD spectra of prosegment. Far-UV CD spectra of PSwt, in ddH2O and in 20 mM acetic acid/NaOH, at pH 5.3, with and without 100 mM NaCl added. […] Anal Biochem 287: 243–251]. (TIF) Click here for additional data file.

For series [4], the system named is pepsin (PS-Rp, PS-TS, PS-Np complexes). Conditions: ref [7]; cited from earlier work. From the text:
It seems likely that the PS has achieved this higher affinity for the TS via a concerted optimization of side-chain packing, hydrogen bonding and electrostatics, as evidenced by polar, hydrophobic and charged groups selectively stabilizing the TS ( Fig 3A ). Furthermore, this concerted optimization likely involves both non-native and strengthened native contacts, given the range of interactions involved. In the native fold [ ...

Series [5] has the same test system. The series can be described thus: Φ-value analysis from PS-catalyzed folding and binding constants. Set-up: species or system porcine. Conditions: for Φ: ratio ΔΔG^‡/ΔΔGPS(Np-Rp); for Φ / ΔΔGPS(Np-Rp) (change in equilibrium stability of PS-Np relative to PS-Rp): ± SD by propagation of errors; for ΔΔGPS(Np-Rp) (change in equilibrium stability of PS-Np relative to PS-Rp): ΔΔGPS-Np minus ΔΔGPS-Rp; for effect on PS-TS stability (in words): ΔΔGPS-TS = ΔΔG^‡ + ΔΔGPS-Rp. The protocol: Calculation of Φ-values from PS-catalyzed folding and binding constants
The change in stability of the folding transition state upon mutation was calculated using [drawing 3] (3) where k f, wt and k f, mut are the PS-catalyzed folding rate constants of the wild-type and mutant PS peptides. The change in equilibrium stability of PS-Np relative to PS-Rp upon mutation of the PS (ΔΔGPS(Np-Rp)) was determined as the difference between the changes in binding energies, using [drawing 4] (4) and [drawing 5] (5)
Here, ΔΔGbind refers to either ΔΔGPS-Rp, determined from K d values, or ΔΔGPS-Np, determined from K i values. The Φ-value for each mutant corresponds to eq 3 divided by eq 5. Additional details are included in the supporting information section (Text S1).
As outlined below, ∆Gbind values are used to calculate ∆∆GPS(Np-Rp), which is the change in the equilibrium free energy difference between PS-Np and PS-Rp upon mutation of the PS (for a diagram of the folding reaction, see Fig S1)
ΔΔGbind can refer to either ∆∆G^PS-Np(wt-mut) or ∆∆G^PS-Rp(wt-mut). Also, we can write ∆Gbind in terms of its components
where ∆GPS, ∆Gpepsin and ∆Gsolvent refer to the change in free energy of the PS, pepsin and the solvent upon PS binding to pepsin, respectively. Combining equations S1 and S2 gives
The contribution of each component to ∆∆Gbind will depend on the particular mutation (e.g., nature of substitution, location within folded structure, solvent accessibility). This is the general case for protein engineering analysis, in which the effects of mutations on changes in equilibrium and activation energies are the result of many individual interaction energy terms, including solvent terms, as previously explained in detail [Fersht AR, Matouschek A, Serrano L (1992) The folding of an enzyme I. Theory of protein engineering analysis of stability and pathway of protein folding. J Mol Biol 224: 771‒782]. Most importantly, there is no requirement to separate ΔΔGbind into its components in order to proceed with analysis as we are interested in the overall change in equilibrium stability of the PS-pepsin complex (∆∆GPS(Np-Rp))
This bimolecular approach to Φ-value analysis of protein folding is qualitatively identical to Φ-value analysis as it was originally applied to the study of enzyme catalysis. As outlined previously [Fersht AR], changes in the free energy of enzyme (E) binding to substrate (S) or product (P) are used to determine the change in free energy difference between E-P and E-S upon mutation, ∆∆G^EP-ES(wt-mut), where
As these are at the scale of global energy terms, equations S4 and S5 are equivalent and PS-catalyzed folding can be treated similarly as enzyme catalysis, in which the PS is the foldase and the denatured and natively folded protein are the substrate and product, respectively. However, protein folding reactions are more complicated to interpret at the level of individual interaction energy terms, which are more numerous [Fersht AR].
Changes in the binding energies between PS-Rp and PS-Np upon PS mutation can then be used to determine Φ-values with the following considerations:
1. Free PS is unstructured (see Fig S6), so Ala mutations are expected to have a negligible effect on the stability and conformation of free PS.
2. Changes in binding and folding upon mutation can be localized to the loss of interactions in the immediate vicinity of the truncation mutation (i.e., larger residue mutated to Ala), and not due to gross conformational changes of the PS or changes in the binding/folding mechanism (consider as strong evidence that all of the mutant PS’s readily catalyze folding to the native, active form).
3. Changes in PS-Rp and PS-Np binding energies upon mutation (∆∆G^PS-Np(wt-mut) and ∆∆G^PS-Rp(wt-mut)) are measured directly, while the change in the PS-TS binding energy (∆∆G^PS-TS(wt-mut)) is the sum of ∆∆G^PS-Rp(wt-mut) and ∆∆G^‡(wt-mut).
4. Φ-values are calculated using […]

Values joined by “and” are separate entries in the source; they are usually repeats but may differ in a detail not shown here. Equal entries are not always repeated. Where no end group is shown, it is not given here.

T1 sequence (P00791 60-385): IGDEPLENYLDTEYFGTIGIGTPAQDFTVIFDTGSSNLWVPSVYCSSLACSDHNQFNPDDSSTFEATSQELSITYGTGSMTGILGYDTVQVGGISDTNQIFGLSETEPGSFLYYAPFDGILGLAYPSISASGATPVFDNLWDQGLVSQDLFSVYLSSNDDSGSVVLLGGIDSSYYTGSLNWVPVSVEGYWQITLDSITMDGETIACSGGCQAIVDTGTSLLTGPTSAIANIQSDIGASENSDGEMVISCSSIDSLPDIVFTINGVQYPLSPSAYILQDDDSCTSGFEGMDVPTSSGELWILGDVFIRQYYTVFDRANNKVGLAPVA

“LVKVPLVRKKSLRQNLIKNGKLKDFLKTHKHNPASKYFPEAAAL [WT]”: the “generation of protease activity without added NaCl” value on refolded pepsin (Rp) [1] is “no generation of protease activity was observed”. In addition, in the series on refolded pepsin (Rp) [2], the “folding of PS-Rp to native complex without 100 mM NaCl” value is on record as “does fold to the native complex”. For the same sequence, the “secondary structure of free PS by CD” value in series [3] is “A negative band at 198 nm is characteristic of random coil structure”; in series [3] (listed as PS), “unstructured on its own”. Besides, the “affinity for folding TS” value in series [4] is “picomolar affinity”.
Take “LVKAPLVRKKSLRQNLIKNGKLKDFLKTHKHNPASKYFPEAAAL [V4A]”: in series [5], the Φ is recorded as −1.0±0.3, the “ΔΔGPS(Np-Rp) (change in equilibrium stability of PS-Np relative to PS-Rp)” value was -0.93 ± 0.18 kcal/mol and the “effect on PS-TS stability (in words)” value is “destabilizing to the TS”.
As to “LVKVPLVRKKSLRQNLAKNGKLKDFLKTHKHNPASKYFPEAAAL [I17A]”, in series [5], the Φ was 0 and 0.0±0.1; the “ΔΔGPS(Np-Rp) (change in equilibrium stability of PS-Np relative to PS-Rp)” value stood at 1.26 ± 0.28 kcal/mol; the “effect on PS-TS stability (in words)” value is “negligible effect on PS-Rp and PS-TS stability”.
